One compound from ChEMBL document CHEMBL3286339, “Synthesis and in vivo SAR study of indolin-2-one-based multi-targeted inhibitors as potential anticancer agents” (Eur J Med Chem, 2014) can be followed below.

The subject of data set [1] is Mus musculus. Kind of data set: Toxicity in BALB/c nude mouse xenografted with human HT-29 cells assessed as severe weight loss at 80 mg/kg/day administered qd. It counts as organism-based. Conditions: in vivo. For orientation: In xenograft studies the graft and the host belong to different species.
The subject of data set [2] is Mus musculus. Kind of data set: Toxicity in BALB/c nude mouse xenografted with human NCI-H460 cells assessed as hematuria at 40 mg/kg/day administered qd. It counts as organism-based. Conditions: in vivo.
For data set [3], the target named is Vascular endothelial growth factor receptor 1 (Homo sapiens, UniProt P17948). Kind of data set: Binding affinity to VEGFR1 (unknown origin).
For data set [4], the target named is T1, Tyrosine-protein kinase Lck (Homo sapiens, UniProt P06239). The data set can be described thus: Binding affinity to LCK (unknown origin).
Target sequence in this assay (P06239 whole entry): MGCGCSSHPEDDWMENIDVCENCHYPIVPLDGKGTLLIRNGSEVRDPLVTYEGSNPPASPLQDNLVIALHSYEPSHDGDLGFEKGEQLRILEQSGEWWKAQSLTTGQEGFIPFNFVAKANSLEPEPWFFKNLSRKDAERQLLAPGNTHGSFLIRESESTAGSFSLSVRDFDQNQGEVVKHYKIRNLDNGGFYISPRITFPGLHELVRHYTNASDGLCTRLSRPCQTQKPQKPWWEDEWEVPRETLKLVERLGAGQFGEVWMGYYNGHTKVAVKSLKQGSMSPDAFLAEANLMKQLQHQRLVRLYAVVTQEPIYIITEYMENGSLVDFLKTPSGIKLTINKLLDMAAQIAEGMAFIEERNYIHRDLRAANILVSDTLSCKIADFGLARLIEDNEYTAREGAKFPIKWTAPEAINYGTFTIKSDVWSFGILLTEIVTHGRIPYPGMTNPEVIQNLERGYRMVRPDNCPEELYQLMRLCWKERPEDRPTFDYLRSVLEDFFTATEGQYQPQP
In data set [5] the target is Receptor-type tyrosine-protein kinase FLT3 (Homo sapiens) (UniProt P36888). The data set can be described thus: Inhibition of FLT3 (unknown origin) at 1 uM relative to control.
Data set [6] deals with Tyrosine-protein kinase ABL1 (Homo sapiens, UniProt P00519). Kind of data set: Inhibition of ABL (unknown origin) at 1 uM relative to control.
Data set [7] addresses Tyrosine-protein kinase ABL2 (Homo sapiens, UniProt P42684). Kind of data set: Inhibition of ARG (unknown origin) at 1 uM relative to control.
Data set [8] deals with Protein-tyrosine kinase 2-beta (Homo sapiens, UniProt Q14289). The data set can be described thus: Inhibition of PYK2 (unknown origin) at 1 uM relative to control.
The target in data set [9] is Fibroblast growth factor receptor 1 (Homo sapiens, UniProt P11362). The data set can be described thus: Inhibition of FGFR1 (unknown origin) at 1 uM relative to control.
The next data set deals with Focal adhesion kinase 1 (Homo sapiens, UniProt Q05397). The data set can be described thus: Inhibition of FAK (unknown origin) at 1 uM relative to control.
In the next data set the test system is TT. Kind of data set: Antiproliferative activity against human TT cells pretreated for 72 hrs followed by compound-washout measured after 72 hrs by MTT assay. The data set is classed as functional, cell-based. In general terms: Tetrazolium assays rely on reduction of a dye to a coloured formazan, in cell work by metabolically active cells.
The nature of data set [10]: Antiproliferative activity against human NCI-H3122 cells after 72 hrs by MTT assay. The data set is classed as functional, cell-based. Particulars: NCI-H3122, 72 h.
Data set [11] concerns the target Vascular endothelial growth factor receptor 3 (Homo sapiens, UniProt P35916). Conditions: 1 uM.
Description: Inhibition of VEGFR3 (unknown origin) at 1 uM relative to control
Data set [12] addresses Mast/stem cell growth factor receptor Kit (Homo sapiens, UniProt P10721). Conditions: 1 uM.
Description: Inhibition of c-KIT (unknown origin) at 1 uM relative to control
The target of data set [13] is T1, Tyrosine-protein kinase Lck. Particulars: 1 uM.
Description: Inhibition of LCK (unknown origin) at 1 uM relative to control

Vascular endothelial growth factor receptor 1, sequence (P17948 whole entry): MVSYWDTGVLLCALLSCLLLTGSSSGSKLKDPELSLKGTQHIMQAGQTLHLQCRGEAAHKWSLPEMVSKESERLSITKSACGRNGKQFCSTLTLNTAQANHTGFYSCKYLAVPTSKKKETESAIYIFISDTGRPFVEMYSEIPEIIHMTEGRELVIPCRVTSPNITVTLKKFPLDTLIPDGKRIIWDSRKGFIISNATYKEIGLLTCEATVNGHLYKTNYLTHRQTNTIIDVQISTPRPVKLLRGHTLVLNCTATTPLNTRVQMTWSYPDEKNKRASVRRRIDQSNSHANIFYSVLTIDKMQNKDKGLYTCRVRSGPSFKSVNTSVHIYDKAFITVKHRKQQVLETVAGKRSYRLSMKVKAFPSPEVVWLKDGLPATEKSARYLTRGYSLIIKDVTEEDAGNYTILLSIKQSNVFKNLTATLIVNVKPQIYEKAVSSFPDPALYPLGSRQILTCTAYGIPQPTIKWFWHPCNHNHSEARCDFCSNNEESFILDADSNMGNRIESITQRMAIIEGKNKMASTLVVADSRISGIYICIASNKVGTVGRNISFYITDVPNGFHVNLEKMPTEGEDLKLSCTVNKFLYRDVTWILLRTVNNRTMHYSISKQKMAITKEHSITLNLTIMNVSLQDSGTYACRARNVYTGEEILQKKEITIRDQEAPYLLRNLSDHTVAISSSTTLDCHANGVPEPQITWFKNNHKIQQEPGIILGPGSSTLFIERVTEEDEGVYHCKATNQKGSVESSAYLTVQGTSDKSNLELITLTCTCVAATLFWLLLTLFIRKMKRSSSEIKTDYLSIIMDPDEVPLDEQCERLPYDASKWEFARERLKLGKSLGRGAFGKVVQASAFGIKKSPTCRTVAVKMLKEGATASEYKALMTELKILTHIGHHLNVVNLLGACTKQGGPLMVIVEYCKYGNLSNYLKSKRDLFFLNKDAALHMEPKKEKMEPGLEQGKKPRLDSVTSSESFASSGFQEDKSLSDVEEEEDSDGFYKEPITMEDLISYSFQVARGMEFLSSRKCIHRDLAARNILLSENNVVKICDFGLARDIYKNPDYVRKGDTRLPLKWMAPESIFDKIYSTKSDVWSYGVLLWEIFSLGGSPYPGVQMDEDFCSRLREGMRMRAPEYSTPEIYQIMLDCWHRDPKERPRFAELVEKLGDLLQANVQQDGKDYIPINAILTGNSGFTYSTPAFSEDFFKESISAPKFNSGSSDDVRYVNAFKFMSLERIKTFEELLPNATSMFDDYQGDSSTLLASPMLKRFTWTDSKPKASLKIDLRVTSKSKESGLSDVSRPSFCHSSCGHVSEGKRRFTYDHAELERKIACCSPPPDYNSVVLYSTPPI
Protein-tyrosine kinase 2-beta, sequence (Q14289 whole entry, looked up): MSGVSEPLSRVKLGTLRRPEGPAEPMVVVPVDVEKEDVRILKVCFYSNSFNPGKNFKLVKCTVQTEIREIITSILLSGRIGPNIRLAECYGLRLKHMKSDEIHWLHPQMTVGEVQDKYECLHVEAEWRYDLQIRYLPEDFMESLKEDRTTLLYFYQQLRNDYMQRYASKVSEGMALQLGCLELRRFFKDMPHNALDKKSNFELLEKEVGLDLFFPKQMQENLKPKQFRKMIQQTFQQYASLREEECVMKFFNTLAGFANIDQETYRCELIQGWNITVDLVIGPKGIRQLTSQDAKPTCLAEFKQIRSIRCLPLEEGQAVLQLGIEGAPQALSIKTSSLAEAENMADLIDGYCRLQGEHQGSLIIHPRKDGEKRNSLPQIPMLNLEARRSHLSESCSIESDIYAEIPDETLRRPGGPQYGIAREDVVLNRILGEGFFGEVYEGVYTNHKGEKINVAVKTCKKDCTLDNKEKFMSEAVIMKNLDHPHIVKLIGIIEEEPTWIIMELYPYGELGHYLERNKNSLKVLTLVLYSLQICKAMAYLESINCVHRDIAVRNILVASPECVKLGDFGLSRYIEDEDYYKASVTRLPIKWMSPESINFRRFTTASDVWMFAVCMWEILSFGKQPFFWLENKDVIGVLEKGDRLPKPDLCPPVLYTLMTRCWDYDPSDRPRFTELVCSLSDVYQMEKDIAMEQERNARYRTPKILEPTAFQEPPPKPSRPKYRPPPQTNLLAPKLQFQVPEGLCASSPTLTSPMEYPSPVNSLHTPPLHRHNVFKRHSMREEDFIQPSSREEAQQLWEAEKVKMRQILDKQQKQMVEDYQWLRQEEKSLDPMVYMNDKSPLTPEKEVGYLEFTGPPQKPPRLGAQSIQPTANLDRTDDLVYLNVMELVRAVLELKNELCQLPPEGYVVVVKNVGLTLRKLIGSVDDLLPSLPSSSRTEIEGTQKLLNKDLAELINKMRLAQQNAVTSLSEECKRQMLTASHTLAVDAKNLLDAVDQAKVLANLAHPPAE
Focal adhesion kinase 1, sequence (Q05397 2-1052 limits assumed): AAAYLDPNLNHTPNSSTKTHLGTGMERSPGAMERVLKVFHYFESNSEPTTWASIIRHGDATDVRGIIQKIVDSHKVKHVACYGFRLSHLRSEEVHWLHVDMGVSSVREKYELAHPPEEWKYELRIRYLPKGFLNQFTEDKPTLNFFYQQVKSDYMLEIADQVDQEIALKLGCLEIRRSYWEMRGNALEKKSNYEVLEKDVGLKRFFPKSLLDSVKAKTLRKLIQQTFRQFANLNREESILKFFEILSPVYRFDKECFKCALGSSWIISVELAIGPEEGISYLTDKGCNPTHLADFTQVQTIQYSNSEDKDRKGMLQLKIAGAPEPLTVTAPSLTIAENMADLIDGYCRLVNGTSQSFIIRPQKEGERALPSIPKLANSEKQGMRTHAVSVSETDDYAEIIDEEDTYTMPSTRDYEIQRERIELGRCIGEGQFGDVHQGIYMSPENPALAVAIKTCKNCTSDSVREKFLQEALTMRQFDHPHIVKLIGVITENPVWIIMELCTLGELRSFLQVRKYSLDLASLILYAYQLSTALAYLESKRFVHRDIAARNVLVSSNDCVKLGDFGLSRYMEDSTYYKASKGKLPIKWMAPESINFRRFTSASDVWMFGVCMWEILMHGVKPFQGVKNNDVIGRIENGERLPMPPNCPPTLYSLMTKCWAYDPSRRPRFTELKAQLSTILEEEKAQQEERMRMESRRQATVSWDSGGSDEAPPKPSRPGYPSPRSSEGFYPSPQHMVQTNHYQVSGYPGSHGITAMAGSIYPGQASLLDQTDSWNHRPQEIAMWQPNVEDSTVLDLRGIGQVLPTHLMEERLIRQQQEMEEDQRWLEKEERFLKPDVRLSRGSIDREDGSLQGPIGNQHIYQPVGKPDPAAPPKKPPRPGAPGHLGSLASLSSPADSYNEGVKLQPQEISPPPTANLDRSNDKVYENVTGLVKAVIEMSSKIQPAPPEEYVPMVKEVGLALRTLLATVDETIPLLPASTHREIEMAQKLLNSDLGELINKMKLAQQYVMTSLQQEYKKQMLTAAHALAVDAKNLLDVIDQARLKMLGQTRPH
Tyrosine-protein kinase ABL1, sequence (P00519 whole entry): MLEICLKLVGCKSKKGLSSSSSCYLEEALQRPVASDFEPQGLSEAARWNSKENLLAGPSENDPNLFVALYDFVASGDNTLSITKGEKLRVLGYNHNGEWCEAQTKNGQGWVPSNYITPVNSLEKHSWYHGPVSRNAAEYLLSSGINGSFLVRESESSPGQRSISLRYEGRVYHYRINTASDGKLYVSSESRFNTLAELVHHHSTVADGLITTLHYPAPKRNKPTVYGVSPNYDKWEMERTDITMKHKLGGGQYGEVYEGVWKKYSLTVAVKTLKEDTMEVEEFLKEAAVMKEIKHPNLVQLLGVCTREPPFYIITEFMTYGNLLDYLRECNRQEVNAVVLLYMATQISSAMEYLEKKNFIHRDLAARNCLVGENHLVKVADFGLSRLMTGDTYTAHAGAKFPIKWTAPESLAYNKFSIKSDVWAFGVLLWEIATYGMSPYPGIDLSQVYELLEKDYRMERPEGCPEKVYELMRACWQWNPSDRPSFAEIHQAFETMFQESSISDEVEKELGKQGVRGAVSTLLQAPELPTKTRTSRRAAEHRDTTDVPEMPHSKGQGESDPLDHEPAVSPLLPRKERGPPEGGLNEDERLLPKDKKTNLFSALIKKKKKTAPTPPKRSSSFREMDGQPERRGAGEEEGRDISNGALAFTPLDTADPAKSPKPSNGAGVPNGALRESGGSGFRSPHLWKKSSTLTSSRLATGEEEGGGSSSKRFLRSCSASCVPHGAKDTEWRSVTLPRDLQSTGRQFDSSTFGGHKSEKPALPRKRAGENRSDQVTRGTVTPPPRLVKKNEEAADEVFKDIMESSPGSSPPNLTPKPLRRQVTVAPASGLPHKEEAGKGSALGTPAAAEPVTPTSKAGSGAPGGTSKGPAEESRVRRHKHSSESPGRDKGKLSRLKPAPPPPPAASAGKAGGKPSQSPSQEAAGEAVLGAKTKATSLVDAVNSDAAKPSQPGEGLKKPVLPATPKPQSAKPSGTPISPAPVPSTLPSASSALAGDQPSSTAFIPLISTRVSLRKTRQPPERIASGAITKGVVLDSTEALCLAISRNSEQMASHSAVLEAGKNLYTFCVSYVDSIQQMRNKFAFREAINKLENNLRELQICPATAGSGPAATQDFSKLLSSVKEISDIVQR

By Ki is commonly meant a measure of affinity in units of concentration, obtained from inhibition or displacement. Usually inhibition stands for how much of the control response was suppressed. The low end stands for a response near the control, the high end for a response far below the control. By IC50 is commonly meant the concentration that gives 50% inhibition. For the compound `Cc1[nH]c(/C=C2\C(=O)Nc3ccc(F)cc32)c(C)c1NC(=O)CCN1CCN(C)CC1`, the Activity entry in the data set with Mus musculus [1] and in the data set with Mus musculus [2] was “Non-toxic” each time. Further, the Ki in data set [3] came to 1100 nM; in [4], 2000 nM. In addition, the inhibition in data set [5] turned out to be 100%; in [6], 93%; in [7] it was 76%; in data set [8], 72%; in data set [9] it was 71%; against Focal adhesion kinase 1, 66%. Also, the inhibition in data set [11] is 99%; in data set [12], 87%; in [13], 44%. For the same compound, the IC50 with TT turned out to be 70 nM; in data set [10], 17100 nM.
